Test results taken from US20070037807A1, “Pyridine compounds as inhibitors of dipeptidyl peptidase IV” (priority 2003, published 2007).
Where a name gives a salt, the structure may show the parent alone. Read-outs that look alike come from different tables or passages of the source.

Assays:
dipeptidyl peptidase IV = target: T1, dipeptidyl peptidase IV (Rattus norvegicus, UniProt P14740); test: Determination of dipeptidyl peptidase IV inhibitory activity in rat plasma; format: biochemical, SD rat
T1 construct: from tissue; host or cells: SD rat blood plasma
Description: Determination of Dipeptidyl Peptidase IV Inhibitory Activity in Rat Plasma
An N,N-dimethylformamide solution (1 μL) containing the test compound was added to a mixture of water (69 μL), 1 M Tris-hydrochloride buffer (10 μL, pH 7.5) and 1 mM aqueous Gly-Pro-p-NA solution (100 μL) to prepare a mixed solution. […] At the same time, an increase (ΔODc) in absorbance of the reaction mixture without the test compound, and an increase (ΔODb) in absorbance of the reaction mixture without the test compound and the enzyme were determined and percent inhibition of dipeptidyl peptidase IV enzyme activity was calculated from the following formula: {1-[(ΔODs−ΔODb)/(ΔODc−ΔODb)]}×100

[1] = Experimental Example 2, same manner as Experimental Example 1, SD rat plasma, Gly-Pro-p-NA substrate, 30° C., read-out: IC50 value (dipeptidyl peptidase IV inhibitory activity)

T1 sequence (P14740 37-767 limits assumed): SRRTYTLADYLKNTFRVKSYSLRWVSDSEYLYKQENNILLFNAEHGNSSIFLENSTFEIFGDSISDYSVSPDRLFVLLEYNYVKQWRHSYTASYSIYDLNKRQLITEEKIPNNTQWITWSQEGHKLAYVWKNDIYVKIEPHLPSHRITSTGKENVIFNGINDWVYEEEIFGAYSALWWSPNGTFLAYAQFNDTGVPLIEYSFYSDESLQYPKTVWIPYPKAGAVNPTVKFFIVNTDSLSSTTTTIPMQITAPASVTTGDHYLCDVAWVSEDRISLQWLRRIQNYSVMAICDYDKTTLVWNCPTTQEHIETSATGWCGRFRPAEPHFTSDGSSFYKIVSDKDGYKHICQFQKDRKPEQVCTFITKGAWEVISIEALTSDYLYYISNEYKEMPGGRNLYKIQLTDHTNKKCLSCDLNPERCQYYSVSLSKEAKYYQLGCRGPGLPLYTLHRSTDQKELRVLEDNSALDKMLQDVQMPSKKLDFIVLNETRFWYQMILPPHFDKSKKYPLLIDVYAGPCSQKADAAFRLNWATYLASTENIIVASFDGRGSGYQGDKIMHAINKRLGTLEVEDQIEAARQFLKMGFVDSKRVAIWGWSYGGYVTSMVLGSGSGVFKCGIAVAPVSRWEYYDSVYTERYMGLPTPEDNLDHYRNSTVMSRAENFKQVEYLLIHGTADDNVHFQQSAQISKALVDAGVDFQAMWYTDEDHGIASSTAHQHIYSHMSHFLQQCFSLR

IC50 (dipeptidyl peptidase IV; [1])	Compound	other results
16 nM	CCOC(=O)C1CCN(C(=O)Cc2c(C)nc(CC(C)C)c(CN)c2-c2ccc(C)cc2)CC1 [Example 421, ethyl 1-{[5-(aminomethyl)-6-isobutyl-2-methyl-4-(4-methylphenyl)pyridin-3-yl]acetyl}piperidine-4-carboxylate dihydrochloride]	
3.5 nM	COC(=O)c1cn(C)nc1OCc1c(C)nc(CC(C)C)c(CN)c1-c1ccc(C)cc1 [Example 305, methyl 3-{[5-(aminomethyl)-6-isobutyl-2-methyl-4-(4-methylphenyl)pyridin-3-yl]methoxy}-1-methyl-1H-pyrazole-4-carboxylate dihydrochloride]	
7.3 nM	Cc1ccc(-c2c(CC(=O)N3CCC(C(=O)O)CC3)c(C)nc(CC(C)C)c2CN)cc1 [Example 422, 1-{[5-(aminomethyl)-6-isobutyl-2-methyl-4-(4-methylphenyl)pyridin-3-yl]acetyl}piperidine-4-carboxylic acid dihydrochloride]	
20 nM	Cc1ccc(-c2c(CC(=O)N3CCOCC3)c(C)nc(CC(C)C)c2CN)cc1 [Example 312, {[2-isobutyl-6-methyl-4-(4-methylphenyl)-5-(2-morpholin-4-yl-2-oxoethyl)pyridin-3-yl]methyl}amine dihydrochloride]	
15 nM	Cc1ccc(-c2c(CN)c(CC(C)C)nc(C)c2NC(=O)c2cnoc2)cc1 [Example 350, N-[5-(aminomethyl)-6-isobutyl-2-methyl-4-(4-methylphenyl)pyridin-3-yl]isoxazole-4-carboxamide dihydrochloride]	

Continued, compound first:

Compound	IC50 (dipeptidyl peptidase IV; [1])	other results
COC(=O)c1c(C)nc(CC(C)C)c(CN)c1-c1ccc(C)cc1 [Example 1, methyl 5-(aminomethyl)-6-isobutyl-2-methyl-4-(4-methylphenyl)nicotinate]		IC50 (dipeptidyl peptidase IV; Experimental Example 1, SD rat plasma, Gly-Pro-p-NA substrate, 30° C., 1 hr, absorbance 405 nm, read-out: IC50 value (dipeptidyl peptidase IV inhibitory activity)): 520 nM; melting point: 56 to 57 °C
Cc1ccc(-c2c(CN)c(CC(C)C)nc(C)c2C(=O)OCc2ccc(C(=O)O)cc2)cc1 [Example 170, 4-[({[5-(aminomethyl)-6-isobutyl-2-methyl-4-(4-methylphenyl)pyridin-3-yl]carbonyl}oxy)methyl]benzoic acid dihydrochloride]		IC50 (dipeptidyl peptidase IV): 100 nM
Cc1nc(CC(C)C)c(CN)c(-c2ccc(Cl)cc2)c1C(=O)OC(C)(C)C [Example 23, tert-butyl 5-(aminomethyl)-4-(4-chlorophenyl)-6-isobutyl-2-methylnicotinate]		melting point: 81 to 83 °C
Cc1ccc(-c2c(CN)c(CC(C)C)nc(C)c2NC(=O)c2ccc(F)cc2)cc1 [Example 267, N-[5-(aminomethyl)-6-isobutyl-2-methyl-4-(4-methylphenyl)pyridin-3-yl]-4-fluorobenzamide dihydrochloride]	7.4 nM	
Cc1ccc(-c2c(CN)c(CC(C)C)nc(C(C)C)c2C(=O)O)cc1 [Example 26, 5-(aminomethyl)-6-isobutyl-2-isopropyl-4-(4-methylphenyl)nicotinic acid dihydrochloride]	5.1 nM	
Cc1ccc(-c2c(CSc3ccccc3C(N)=O)c(C)nc(CC(C)C)c2CN)cc1 [Example 210, 2-({[5-(aminomethyl)-6-isobutyl-2-methyl-4-(4-methylphenyl)pyridin-3-yl]methyl}thio)benzamide dihydrochloride]	12 nM	
